Experimental data as given in US6534524B1, “Indazole compounds and pharmaceutical compositions for inhibiting protein kinases, and methods for their use” (Agouron Pharmaceuticals, Inc., priority 1999, dated 2003).

Tested on: human umbilical vein endothelial cells (HUVEC)
Test: HUVEC proliferation assay (VEGF-stimulated, MTT);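 for % inhibition of the proliferation of HUVEC: relative to VEGF-stimulated control minus starvation-medium baseline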
Type: cell-based
Conditions: crude reaction mixtures; for % inhibition of the proliferation of HUVEC: Library II, Y=S; for % inhibition: Library III, HUVEC proliferation, nominal concentration of 0.5 nM
Experimental: HUVEC Proliferation Assay
This assay determines the ability of a test compound to inhibit the growth factor-stimulated proliferation of human umbilical vein endothelial cells (“HUVEC”). HUVEC cells (passage 3-4, Clonetics, Corp.) were thawed into EGM2 culture medium (Clonetics Corp) in T75 flasks. Fresh EGM2 medium was added to the flasks 24 hours later. Four or five days later, cells were exposed to another culture medium (F12K medium supplemented with 10% fetal bovine serum (FBS), 60 μg/mL endothelial cell growth supplement (ECGS), and 0.1 mg/mL heparin). Exponentially-growing HUVEC cells were used in experiments thereafter. Ten to twelve thousand HUVEC cells were plated in 96-well dishes in 100 μl of rich, culture medium (described above). The cells were allowed to attach for 24 hours in this medium. The medium was then removed by aspiration and 105 μl of starvation media (F12K+1% FBS) was added to each well. After 24 hours, 15 μl of test agent dissolved in 1% DMSO in starvation medium or this vehicle alone was added into each treatment well; the final DMSO concentration was 0.1%. One hour later, 30 μl of VEGF (30 ng/mL) in starvation media was added to all wells except those containing untreated controls; the final VEGF concentration was 6 ng/mL. Cellular proliferation was quantified 72 hours later by MTT dye reduction, at which time cells were exposed for 4 hours MTT (Promega Corp.).
For screening compound library plates, one or two concentrations (one well per concentration) were employed, and the % inhibition was calculated by the following formula:
% inhibition=(control−test)÷(control−starvation)
% inhibition=(control-treated)/(control-starvation)×100

[1] = 0.5 mM (column head; text: nominal 0.5 nM)
[2] = 2 mM (column head; text: nominal 2 nM)

Compound	% inhibition of the proliferation of HUVEC [1] [%]	% inhibition of the proliferation of HUVEC [2] [%]	% inhibition [%]
O=C(NC1CCC(O)CC1)c1ccccc1Sc1ccc2c(C=Cc3ccccn3)n[nH]c2c1 (centres unmarked)	23	6	
O=C(O)CCNC(=O)c1ccccc1Sc1ccc2c(/C=C/c3ccccn3)n[nH]c2c1	4	20	
COCCNC(=O)c1ccccc1Sc1ccc2c(/C=C/c3ccccn3)n[nH]c2c1	21	60	
O=C(NCCCn1ccnc1)c1ccccc1Sc1ccc2c(/C=C/c3ccccn3)n[nH]c2c1	23	23	
NS(=O)(=O)c1ccc(CCNC(=O)c2ccccc2Sc2ccc3c(/C=C/c4ccccn4)n[nH]c3c2)cc1	26	37	
CCCCN(CC)CCNC(=O)c1ccccc1Sc1ccc2c(/C=C/c3ccccn3)n[nH]c2c1	2	6	
CN(C)c1ccc(CNC(=O)c2ccccc2Sc2ccc3c(/C=C/c4ccccn4)n[nH]c3c2)cc1	32	24	
O=C(NC(CO)CO)c1ccccc1Sc1ccc2c(/C=C/c3ccccn3)n[nH]c2c1	48	8	
CC(=O)NCCNC(=O)c1ccccc1Sc1ccc2c(/C=C/c3ccccn3)n[nH]c2c1	15	27	
O=C(NCCC1OCCO1)c1ccccc1Sc1ccc2c(/C=C/c3ccccn3)n[nH]c2c1	38	68	
CC(C)OCCCNC(=O)c1ccccc1Sc1ccc2c(/C=C/c3ccccn3)n[nH]c2c1	34	99	
CC(NC(=O)c1ccccc1Sc1ccc2c(/C=C/c3ccccn3)n[nH]c2c1)c1ccccc1 (centres unmarked)	30	94	
Cc1ccccc1CNC(=O)c1ccccc1Sc1ccc2c(/C=C/c3ccccn3)n[nH]c2c1	24	99	
Cc1ccc(CNC(=O)c2ccccc2Sc2ccc3c(/C=C/c4ccccn4)n[nH]c3c2)cc1	20	92	
O=C(NCCc1ccccc1)c1ccccc1Sc1ccc2c(/C=C/c3ccccn3)n[nH]c2c1	15	99	
CN(NC(=O)c1ccccc1Sc1ccc2c(/C=C/c3ccccn3)n[nH]c2c1)c1ccccc1	16	37	
O=C(NN1CCCC1)c1ccccc1Sc1ccc2c(/C=C/c3ccccn3)n[nH]c2c1	17	23	
O=C(NNC(=O)c1ccccc1Sc1ccc2c(/C=C/c3ccccn3)n[nH]c2c1)c1ccc[nH]1	60	99	
Cc1ccc(NC(=O)c2ccccc2Sc2ccc3c(/C=C/c4ccccn4)n[nH]c3c2)cc1O			6
O=Nc1c(O)nc(O)nc1NC(=O)c1ccccc1Sc1ccc2c(/C=C/c3ccccn3)n[nH]c2c1			−18
O=C(Nc1ncc([N+](=O)[O-])s1)c1ccccc1Sc1ccc2c(/C=C/c3ccccn3)n[nH]c2c1			−15
O=C(Nc1ccc2c(c1)OCCO2)c1ccccc1Sc1ccc2c(/C=C/c3ccccn3)n[nH]c2c1			−1
O=C(Nc1cccc(F)c1)c1ccccc1Sc1ccc2c(/C=C/c3ccccn3)n[nH]c2c1			−11
O=C(Nc1cccc2cccnc12)c1ccccc1Sc1ccc2c(/C=C/c3ccccn3)n[nH]c2c1			3
CC(C)Oc1cccc(NC(=O)c2ccccc2Sc2ccc3c(/C=C/c4ccccn4)n[nH]c3c2)c1			1
CSc1nc(NC(=O)c2ccccc2Sc2ccc3c(/C=C/c4ccccn4)n[nH]c3c2)ns1			−27
Cn1nc(C2CC2)cc1NC(=O)c1ccccc1Sc1ccc2c(/C=C/c3ccccn3)n[nH]c2c1			−47

Compound	% inhibition of the proliferation of HUVEC [1] [%]	% inhibition of the proliferation of HUVEC [2] [%]	% inhibition [%]
O=C(Nc1ccc2cccc(O)c2n1)c1ccccc1Sc1ccc2c(/C=C/c3ccccn3)n[nH]c2c1			33
O=C(Nc1ccc(C(F)(F)F)cn1)c1ccccc1Sc1ccc2c(/C=C/c3ccccn3)n[nH]c2c1			20
O=C(Nc1ncc(Cl)s1)c1ccccc1Sc1ccc2c(/C=C/c3ccccn3)n[nH]c2c1			−29
CCc1cccc(CC)c1NC(=O)c1ccccc1Sc1ccc2c(/C=C/c3ccccn3)n[nH]c2c1			−17
CC(C)c1cccc(C(C)C)c1NC(=O)c1ccccc1Sc1ccc2c(/C=C/c3ccccn3)n[nH]c2c1			−7
Cc1nc(NC(=O)c2ccccc2Sc2ccc3c(/C=C/c4ccccn4)n[nH]c3c2)n[nH]1			0
COC(=O)c1ccc(NC(=O)c2ccccc2Sc2ccc3c(/C=C/c4ccccn4)n[nH]c3c2)o1			−1
O=C(Nc1ncnc2[nH]ncc12)c1ccccc1Sc1ccc2c(/C=C/c3ccccn3)n[nH]c2c1			4
O=C(Nc1nc(O)nc2[nH]ncc12)c1ccccc1Sc1ccc2c(/C=C/c3ccccn3)n[nH]c2c1			−43
CCCc1cccc(NC(=O)c2ccccc2Sc2ccc3c(/C=C/c4ccccn4)n[nH]c3c2)c1			−42
CCCCCc1ccc(NC(=O)c2ccccc2Sc2ccc3c(/C=C/c4ccccn4)n[nH]c3c2)cc1			13
CCC(C)c1ccc(NC(=O)c2ccccc2Sc2ccc3c(/C=C/c4ccccn4)n[nH]c3c2)cc1 (centres unmarked)			81
O=C(Nc1c(F)cccc1F)c1ccccc1Sc1ccc2c(/C=C/c3ccccn3)n[nH]c2c1			−31
O=C(Nc1cccc(-c2cc[nH]n2)c1)c1ccccc1Sc1ccc2c(/C=C/c3ccccn3)n[nH]c2c1			−3
CC(C)(C)C1CCC(NC(=O)c2ccccc2Sc2ccc3c(/C=C/c4ccccn4)n[nH]c3c2)CC1 (centres unmarked)			0
CC(CCCC(C)(C)O)NC(=O)c1ccccc1Sc1ccc2c(/C=C/c3ccccn3)n[nH]c2c1 (centres unmarked)			3
Cc1ccc(NC(=O)c2ccccc2Sc2ccc3c(/C=C/c4ccccn4)n[nH]c3c2)c(C)c1			13
COc1ccc(NC(=O)c2ccccc2Sc2ccc3c(/C=C/c4ccccn4)n[nH]c3c2)c(C)c1			0
O=C(Nc1cccnc1Cl)c1ccccc1Sc1ccc2c(/C=C/c3ccccn3)n[nH]c2c1			2
O=C(Nc1ncc(Cl)cc1Cl)c1ccccc1Sc1ccc2c(/C=C/c3ccccn3)n[nH]c2c1			4
COc1ccc(NC(=O)c2ccccc2Sc2ccc3c(/C=C/c4ccccn4)n[nH]c3c2)c(OC)n1			20
O=C(Nc1ccc(Cl)nc1)c1ccccc1Sc1ccc2c(/C=C/c3ccccn3)n[nH]c2c1			2
N#Cc1c(NC(=O)c2ccccc2Sc2ccc3c(/C=C/c4ccccn4)n[nH]c3c2)sc2c1CCC2			−9
Cc1ccc(O)c(NC(=O)c2ccccc2Sc2ccc3c(/C=C/c4ccccn4)n[nH]c3c2)c1			−1
O=C(Nc1cccc2c(O)cccc12)c1ccccc1Sc1ccc2c(/C=C/c3ccccn3)n[nH]c2c1			4
Cc1cc(O)ccc1NC(=O)c1ccccc1Sc1ccc2c(/C=C/c3ccccn3)n[nH]c2c1			12
